Patent US6872557B1, “Gene encoding novel human secretory phospholipase A2” (Shionogi & Co., Ltd., priority 1999, dated 2005)

Assays:
[1] = target: T1, human IIA type secretory PLA2 (Homo sapiens, UniProt P14555); experiment: Inhibition of secretory PLA2 activity, release of 14C-oleic acid from 14C-POPC; format: biochemical; conditions: 14C-POPC substrate, 40° C., 60 min, various concentrations of Indoxam; FIG. 4
T1 sequence (P14555 21-144): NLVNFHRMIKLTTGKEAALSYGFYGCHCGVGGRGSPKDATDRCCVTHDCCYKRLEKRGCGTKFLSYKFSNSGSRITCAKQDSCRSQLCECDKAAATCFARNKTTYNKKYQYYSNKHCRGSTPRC
Experimental: (§1) Inhibitory activity against this novel type of human secretory type PLA2 was determined with Indoxam that is a 1-oxamoylindolidine derivative. It has already been reported that Indoxam inhibits the enzymatic activities of IIA type and IB type secretory type PLA2 (Yokota et al., Biochim. Biophys. Acta (1999) 1438, 213-222). The PLA2 activities were determined by the measurement of the quantity of released ^14C-oleic acid from ^14C-labeled 1-palmitoyl-2-oleoyl-phosphatidylcholine (POPC), according to the Draheim et al.'s method (J. Med. Chem., (1996) 39, 5159-5175). In the solution composed of 50 mM Tris-HCl (pH 8.0), 200 mM NaCl, 2 mM CaCl2, and 1 mg/ml bovine serum albumin, the substrates composed of 1 mM POPC (the mixture of about 100,000 cpm ^14C-POPC and unlabeled POPC) and 3 mM deoxycholic acid were incubated with each secretory PLA2 in the presence of various concentrations of Indoxam at 40° C. for 60 min. Then, the quantity of released ^4C-oleic acid was measured. Purified materials were used in the case with human IB type (2 ng), IIA type (10 ng) and X type (4 ng). Human V type, IID type and the secretory type PLA2 of this invention (IIE type) were prepared from the culture supernatant of CHO cells that stably express them.
(§2) The quantity of released ^14C-oleic acid from ^14C-POPC by each human secretory type PLA2 in the absence of Indoxam was regarded as 100% and the quantity of released ^14C-oleic acid in the presence of each concentration of Indoxam was shown as %.

[2] = target: T2, human IID type secretory PLA2 (Homo sapiens, UniProt Q9UNK4); experiment: as above; format: biochemical; conditions: 14C-POPC substrate, 40° C., 60 min, various concentrations of Indoxam; FIG. 4
T2 construct: made in house
T2 sequence (Q9UNK4 21-145): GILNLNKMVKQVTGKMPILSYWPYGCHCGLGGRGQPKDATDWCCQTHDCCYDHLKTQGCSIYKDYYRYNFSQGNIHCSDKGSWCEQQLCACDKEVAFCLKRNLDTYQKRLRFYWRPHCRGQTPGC
Experimental: as §1, §2

[3] = target: T3, human secretory type PLA2 of this invention (IIE type) (Homo sapiens, UniProt Q9NZK7); experiment: as above; format: biochemical; conditions: 14C-POPC substrate, 40° C., 60 min, various concentrations of Indoxam; FIG. 4
T3 construct: made in house
T3 sequence (Q9NZK7 20-142): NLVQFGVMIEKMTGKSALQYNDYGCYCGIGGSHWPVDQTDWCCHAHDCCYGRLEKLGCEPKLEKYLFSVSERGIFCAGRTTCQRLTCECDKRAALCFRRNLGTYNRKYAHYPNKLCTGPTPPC
Experimental: as §1, §2

[4] = target: T4, IIA type secretory type PLA2 (Homo sapiens, UniProt P14555); conditions: already reported, Yokota et al., Biochim. Biophys. Acta (1999) 1438, 213-222; cited from earlier work
T4 sequence (P14555 21-144): T1 sequence (P14555 21-144)

[5] = target: IB type secretory type PLA2 (Homo sapiens, UniProt P04054); conditions: already reported, Yokota et al., Biochim. Biophys. Acta (1999) 1438, 213-222; cited from earlier work
IB type secretory type PLA2, sequence (P04054 23-148): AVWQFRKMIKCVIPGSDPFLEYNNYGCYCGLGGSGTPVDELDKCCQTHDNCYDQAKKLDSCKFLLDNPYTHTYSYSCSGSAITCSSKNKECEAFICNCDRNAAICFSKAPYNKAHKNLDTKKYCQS

CCc1c(C(=O)C(N)=O)c2c(OCC(=O)O)cccn2c1Cc1ccccc1-c1ccccc1 [Indoxam]
inhibition of enzymatic activity of human IIA type PLA2 [1]: strongly inhibits
inhibition of enzymatic activity of human IID type PLA2 [2]: strongly inhibits
inhibition of enzymatic activity of human PLA2 of this invention (IIE type) [3]: strongly inhibits
inhibition of enzymatic activity of IIA type secretory type PLA2 [4]: inhibits
inhibition of enzymatic activity of IB type secretory type PLA2 [5]: inhibits
